In ChEMBL document CHEMBL4813941, “Secondary Metabolites from the Leather Coral-Derived Fungal Strain Xylaria sp. FM1005 and Their Glycoprotein IIb/IIIa Inhibitory Activity” (J Nat Prod, 2021) one finds inhibition, Activity and IC50 data, which are given here for 7 compounds.

The target in series [1] is T1, Integrin subunit alpha 2b/beta-3 (Rattus norvegicus) (UniProt D3ZAC0+Q8R2H2). Put plainly: Inhibition of fibrinogen binding to rat platelet integrin alpha2b beta3 at 1 ug/ml by ELISA based solid phase binding assay. Format: cell-based. As to conditions: dose 1.0 µg/ml.
The subject of series [2] is Pseudomonas aeruginosa. Put plainly: Antibacterial activity against Pseudomonas aeruginosa at 80 ug/ml incubated for 24 hrs by resazurin dye based broth microdilution method. It counts as functional, organism-based. As to conditions: dose 80.0 µg/ml. For orientation: Alamar Blue is a resazurin reagent that responds to reducing activity.
In series [3] the test system is Escherichia coli. Put plainly: Antibacterial activity against Escherichia coli at 80 ug/ml incubated for 24 hrs by resazurin dye based broth microdilution method. It counts as functional, organism-based. The following applies: dose 80.0 µg/ml.
The test system of series [4] is Bacillus subtilis. Briefly: Antibacterial activity against Bacillus subtilis at 80 ug/ml incubated for 24 hrs by resazurin dye based broth microdilution method. As to conditions: dose 80.0 µg/ml. It counts as functional, organism-based.
The test system of series [5] is A2780. Put plainly: Antiproliferative activity against human A2780 cells at 40 uM incubated for 72 hrs by CyQuant assay. Format: cell-based. As to conditions: a2780, 72 h.
Series [6] deals with HEK293. Put plainly: Antiproliferative activity against human HEK293 cells at 40 uM by SRB assay. It counts as cell-based. The following applies: hek293, 40 µM. On the technique in general: The SRB assay estimates cell density from bound dye.
The subject of series [7] is Staphylococcus aureus. Briefly: Antibacterial activity against Staphylococcus aureus at 80 ug/ml incubated for 24 hrs by resazurin dye based broth microdilution method. The following applies: dose 80.0 µg/ml. Format: functional, organism-based.
The subject of series [8] is Plasma. Put plainly: Antiplatelet activity in Sprague-Dawley rat platelet-rich plasma assessed as inhibition of CaCl2-induced platelet aggregation at 1 ug/ml preincubated for 5 mins followed by CaCl2 addition and measured after 5 mins by light microscopic analysis. It counts as functional, cell-free. As to conditions: dose 1.0 µg/ml, time 10.0 min.
The subject of series [9] is Plasma. Put plainly: Antiplatelet activity in Sprague-Dawley rat platelet-rich plasma assessed as inhibition of ADP-induced platelet aggregation at 1 ug/ml preincubated for 5 mins followed by ADP addition and measured after 5 mins by light microscopic analysis. Format: functional, cell-free. The following applies: dose 1.0 µg/ml, time 10.0 min.
Series [10] deals with T2, Integrin subunit alpha 2b/beta-3 (Rattus norvegicus, UniProt D3ZAC0+Q8R2H2).
T2 sequence (D3ZAC0 whole entry): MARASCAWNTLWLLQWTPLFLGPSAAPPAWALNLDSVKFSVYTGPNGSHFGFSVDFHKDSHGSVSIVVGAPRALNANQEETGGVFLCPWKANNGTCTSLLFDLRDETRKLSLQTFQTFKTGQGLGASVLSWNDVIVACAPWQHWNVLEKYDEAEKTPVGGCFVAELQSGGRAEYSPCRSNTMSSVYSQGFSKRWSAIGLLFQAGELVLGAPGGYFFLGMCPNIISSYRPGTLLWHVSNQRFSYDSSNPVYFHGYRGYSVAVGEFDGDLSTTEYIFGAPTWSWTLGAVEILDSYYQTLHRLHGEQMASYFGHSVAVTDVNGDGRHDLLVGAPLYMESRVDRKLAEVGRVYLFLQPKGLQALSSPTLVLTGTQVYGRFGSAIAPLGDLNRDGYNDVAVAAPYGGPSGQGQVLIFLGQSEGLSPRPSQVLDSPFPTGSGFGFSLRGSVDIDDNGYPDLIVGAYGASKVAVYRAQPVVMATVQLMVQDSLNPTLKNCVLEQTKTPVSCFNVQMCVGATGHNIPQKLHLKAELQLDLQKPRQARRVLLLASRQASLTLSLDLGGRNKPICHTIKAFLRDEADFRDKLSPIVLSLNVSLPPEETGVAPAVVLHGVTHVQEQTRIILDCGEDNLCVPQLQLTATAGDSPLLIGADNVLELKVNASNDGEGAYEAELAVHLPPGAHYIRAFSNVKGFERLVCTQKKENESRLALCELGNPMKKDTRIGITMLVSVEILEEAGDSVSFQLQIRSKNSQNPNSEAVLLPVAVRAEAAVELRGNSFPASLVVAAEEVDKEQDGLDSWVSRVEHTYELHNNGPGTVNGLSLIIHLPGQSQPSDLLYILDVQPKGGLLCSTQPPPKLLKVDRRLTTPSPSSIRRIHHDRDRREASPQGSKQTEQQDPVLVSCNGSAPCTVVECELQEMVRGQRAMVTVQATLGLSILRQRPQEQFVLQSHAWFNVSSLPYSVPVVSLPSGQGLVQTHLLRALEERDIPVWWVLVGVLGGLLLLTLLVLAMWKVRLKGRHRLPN
T2 sequence (Q8R2H2 whole entry): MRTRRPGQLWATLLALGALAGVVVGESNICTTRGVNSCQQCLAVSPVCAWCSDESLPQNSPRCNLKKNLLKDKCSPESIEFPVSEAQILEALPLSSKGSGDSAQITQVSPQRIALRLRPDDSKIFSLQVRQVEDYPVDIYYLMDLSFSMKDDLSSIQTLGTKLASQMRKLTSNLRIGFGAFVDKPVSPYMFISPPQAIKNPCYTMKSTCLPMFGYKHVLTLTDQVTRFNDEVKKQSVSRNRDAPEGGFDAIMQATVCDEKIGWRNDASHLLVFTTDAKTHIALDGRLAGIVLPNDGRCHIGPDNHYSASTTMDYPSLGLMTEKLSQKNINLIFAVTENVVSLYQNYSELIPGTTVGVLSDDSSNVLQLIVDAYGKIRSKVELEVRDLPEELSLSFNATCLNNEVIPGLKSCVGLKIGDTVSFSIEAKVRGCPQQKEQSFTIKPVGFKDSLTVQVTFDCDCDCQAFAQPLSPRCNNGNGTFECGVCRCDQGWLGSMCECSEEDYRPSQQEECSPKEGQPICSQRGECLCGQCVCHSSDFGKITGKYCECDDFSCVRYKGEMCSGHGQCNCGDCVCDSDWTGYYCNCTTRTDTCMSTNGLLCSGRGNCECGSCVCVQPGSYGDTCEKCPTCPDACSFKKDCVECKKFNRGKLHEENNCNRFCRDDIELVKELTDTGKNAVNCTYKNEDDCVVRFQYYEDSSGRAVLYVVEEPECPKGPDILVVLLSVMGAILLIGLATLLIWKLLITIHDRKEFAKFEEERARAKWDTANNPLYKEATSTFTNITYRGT
Put plainly: (§1) Inhibition of fibrinogen binding to rat platelet integrin alpha2b beta3 by ELISA based solid phase binding assay. Format: cell-based.

The target of series [11] is T1, Integrin subunit alpha 2b/beta-3 (Rattus norvegicus). The series is described as §1. It counts as cell-based.

“And” between values parts separate entries of the source, which are not always exact repeats. Identical values can stand only once. The source made the active and inactive calls. The calls are words filed in the database; no cut-off is given here.

On to `C/C(=C/COc1ccc(CC(=O)O)cc1)C(=O)O`, for which the inhibition result in series [1] is “inactive”. The result in [2], in series [3], in [4], in series [7], in series [8] and in [9] was inactive. Moreover, the Activity result in series [5] and in [6] was “Non-Toxic” in each case.
Turning to `CCCCS(=O)(=O)N[C@@H](Cc1ccc(OCCCCC2CCNCC2)cc1)C(=O)O` [TIROFIBAN], in series [10], the IC50 (as a rule, the concentration at which inhibition is half-maximal) was 130 nM and 136 nM.
For the compound `CC#CCOc1ccc(C[C@H](NC(=O)CCCCC)C(=O)O)cc1`, the result in series [2], in [3], in series [4] and in [7] was inactive. In addition, the IC50 in series [10] was 610 nM and 603 nM. Further, the inhibition result in series [11] is “Dose-Dependent Effect”. Also, the Activity entry in series [5] and in series [6] was “Non-Toxic” in each case. For the same compound, the outcome in series [8] and in series [9] was Active.
Regarding `CC#CCOc1ccc(C[C@H](NC(=O)CCCC)C(=O)O)cc1`, the inhibition entry in [1] is “inactive”. In addition, the outcome in [2], in [3], in series [4], in series [7], in [8] and in series [9] was inactive. Further, the Activity entry in [5] and in series [6] was “Non-Toxic” throughout.
`CCCCCC(=O)N[C@@H](Cc1ccc(OCC#CCO)cc1)C(=O)O`: in series [1], the inhibition result is “inactive”. Besides, the outcome in series [2], in series [3], in series [4], in [7], in series [8] and in series [9] was inactive. Further, the Activity result in [5] and in series [6] was “Non-Toxic” throughout.
On to `CC#CCOc1ccc(C[C@H](NC(=O)CCC)C(=O)O)cc1`, for which the inhibition entry in series [1] is “inactive”. For the same compound, the outcome in [2], in series [3], in series [4], in series [7], in series [8] and in series [9] was inactive. In addition, the Activity entry in [5] and in series [6] was “Non-Toxic” in each case.
Turning to `CC#CCOc1ccc(C[C@H](NC(=O)CCCCC)C(=O)OC)cc1`, the outcome in series [2], in [3], in series [4] and in series [7] was inactive. In addition, the IC50 in [10] was 890 nM and 897 nM. Besides, the inhibition result in series [11] was “Dose-Dependent Effect”. Besides, the Activity result in series [5] and in [6] was “Non-Toxic” throughout. For the same compound, the result in [8] and in [9] was Active.
